{"source": "patent US20230293539A1", "about": "“MLL1-WDR5 PROTEIN-PROTEIN INTERACTION INHIBITOR COMPOUNDS AND USES THEREOF” (HUYABIO International, LLC, priority 2022, published 2023)", "key": {"[1]": {"test": "Metabolite ID in Liver S9", "assay_type": "in vitro ADME", "settings": "HBI-2375 and metabolites in Monkey liver S9"}, "[2]": {"molecular_target": "WDR5 (Homo sapiens, UniProt P61964)", "test": "WDR5 TR-FRET Assay", "assay_type": "binding", "settings": "5 nM WDR5 protein, 10 nM peptide, read-out: IC50 (MLL1-WDR5 PPI inhibitory activity)", "method": "WDR5 TR-FRET Assay Procedure: Stock compounds were transferred to the assay plate by Echo Liquid Handler. Reactions were performed in the assay buffer (1×PBS, 300 mM NaCl, 0.5 mM TCEP, 0.1% CHAPS) containing 5 nM WDR5 protein, 10 nM peptide (Ac-ARTEVHLRKS-[Ahx-Ahx][C]-Alexa Fluor 488-NH2) and 0.25 nM Tb-anti His antibody (Tb-Ab) in 384-well white plate (PerkinElmer) with a final volume of 20 μl. Compounds were incubated with WDR5 protein for 30 min at room temperature. Plates were covered, protected from light and incubated for 60 min. at room temperature after adding the peptide and Tb-Ab. EnVision Multimode Plate Reader (PerkinElmer) was used for the TR-FRET assay with excitation wavelength at 340 nm and emission wavelength at 495 and 520 nm. The ratio of the 520/495 nm wavelengths were used to assess the degree of the FRET signal. IC50 was calculated by fitting the inhibition data using XLfit software to sigmoidal dose-response model."}, "[3]": {"molecular_target": "CD39 (Homo sapiens, UniProt P49961)", "sequence (P49961 whole entry, species assumed)": "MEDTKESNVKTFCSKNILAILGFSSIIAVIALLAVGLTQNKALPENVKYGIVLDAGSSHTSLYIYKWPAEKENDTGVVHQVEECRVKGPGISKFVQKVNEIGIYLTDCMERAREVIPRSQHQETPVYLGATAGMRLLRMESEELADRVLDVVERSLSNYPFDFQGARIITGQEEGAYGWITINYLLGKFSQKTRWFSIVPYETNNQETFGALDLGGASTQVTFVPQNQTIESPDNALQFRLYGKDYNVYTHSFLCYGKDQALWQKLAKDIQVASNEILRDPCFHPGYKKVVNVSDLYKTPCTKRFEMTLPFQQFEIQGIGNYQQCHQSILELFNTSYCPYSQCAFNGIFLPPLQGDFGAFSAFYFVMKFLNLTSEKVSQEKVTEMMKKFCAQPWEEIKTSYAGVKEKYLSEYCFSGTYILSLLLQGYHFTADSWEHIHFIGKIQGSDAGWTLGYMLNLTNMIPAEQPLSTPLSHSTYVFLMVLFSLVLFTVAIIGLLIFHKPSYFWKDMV", "test": "Selectivity panel (Table 3)", "assay_type": "biochemical"}, "[4]": {"test": "WBS (whole blood stability) assay", "assay_type": "in vitro ADME", "settings": "for % Remaining after 60 min incubation: 2 μM, 37° C.", "method": "WBS (whole blood stability) assay: The blood samples were collected freshly from multiple species including human, monkey, dog, rat and mouse. 2 μM of test compound and positive control were incubated with the whole blood at 37° C. at 0, 10, 30, 60, and 120 minutes in duplicate. After adding the stop solution, 200 μL of supernatant were analyzed by LC-MS/MS. The % remaining of test compound and T1/2 (min) were calculated and reported."}, "[5]": {"molecular_target": "T1, BRDT-BD1 (Homo sapiens, UniProt Q58F21)", "T1 construct": "BRDT-BD1", "test": "Selectivity panel (Table 3)", "assay_type": "binding"}, "[6]": {"molecular_target": "HDAC6 (Homo sapiens, UniProt Q9UBN7)", "sequence (Q9UBN7 whole entry, species assumed)": "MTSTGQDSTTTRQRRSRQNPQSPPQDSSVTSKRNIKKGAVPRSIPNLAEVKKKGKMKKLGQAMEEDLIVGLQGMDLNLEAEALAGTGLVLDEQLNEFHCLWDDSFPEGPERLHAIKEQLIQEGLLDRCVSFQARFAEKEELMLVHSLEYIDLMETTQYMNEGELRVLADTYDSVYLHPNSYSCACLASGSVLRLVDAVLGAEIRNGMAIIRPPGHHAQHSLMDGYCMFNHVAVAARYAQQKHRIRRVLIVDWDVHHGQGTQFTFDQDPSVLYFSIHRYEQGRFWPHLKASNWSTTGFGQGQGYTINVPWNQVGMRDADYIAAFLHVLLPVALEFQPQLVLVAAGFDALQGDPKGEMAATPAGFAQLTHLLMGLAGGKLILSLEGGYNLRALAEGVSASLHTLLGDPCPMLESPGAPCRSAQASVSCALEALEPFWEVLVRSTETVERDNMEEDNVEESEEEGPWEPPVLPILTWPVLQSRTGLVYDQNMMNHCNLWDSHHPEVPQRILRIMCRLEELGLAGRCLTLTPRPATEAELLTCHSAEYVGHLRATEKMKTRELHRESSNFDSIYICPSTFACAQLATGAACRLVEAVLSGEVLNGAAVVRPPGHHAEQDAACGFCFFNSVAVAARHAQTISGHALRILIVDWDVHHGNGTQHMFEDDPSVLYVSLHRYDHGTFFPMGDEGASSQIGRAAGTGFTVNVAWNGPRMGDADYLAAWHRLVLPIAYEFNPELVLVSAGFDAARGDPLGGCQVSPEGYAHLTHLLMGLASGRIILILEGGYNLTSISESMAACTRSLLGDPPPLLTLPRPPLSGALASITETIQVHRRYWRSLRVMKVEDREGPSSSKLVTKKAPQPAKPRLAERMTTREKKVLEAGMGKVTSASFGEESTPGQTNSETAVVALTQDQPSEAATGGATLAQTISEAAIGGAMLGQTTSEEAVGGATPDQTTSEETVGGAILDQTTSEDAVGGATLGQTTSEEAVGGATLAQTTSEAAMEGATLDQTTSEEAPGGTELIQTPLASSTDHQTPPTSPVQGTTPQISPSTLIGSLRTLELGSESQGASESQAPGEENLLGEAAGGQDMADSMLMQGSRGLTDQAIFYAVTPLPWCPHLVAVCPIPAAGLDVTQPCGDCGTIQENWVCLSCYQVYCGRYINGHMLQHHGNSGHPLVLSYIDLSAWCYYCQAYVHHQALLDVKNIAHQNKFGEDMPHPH", "test": "Selectivity panel (Table 3)", "assay_type": "biochemical"}, "[7]": {"test": "Metabolite ID in plasma", "assay_type": "in vitro ADME", "settings": "HBI-2375 and metabolites in Mouse plasma"}, "[8]": {"molecular_target": "HDAC8 (Homo sapiens, UniProt Q9BY41)", "sequence (Q9BY41 whole entry, species assumed)": "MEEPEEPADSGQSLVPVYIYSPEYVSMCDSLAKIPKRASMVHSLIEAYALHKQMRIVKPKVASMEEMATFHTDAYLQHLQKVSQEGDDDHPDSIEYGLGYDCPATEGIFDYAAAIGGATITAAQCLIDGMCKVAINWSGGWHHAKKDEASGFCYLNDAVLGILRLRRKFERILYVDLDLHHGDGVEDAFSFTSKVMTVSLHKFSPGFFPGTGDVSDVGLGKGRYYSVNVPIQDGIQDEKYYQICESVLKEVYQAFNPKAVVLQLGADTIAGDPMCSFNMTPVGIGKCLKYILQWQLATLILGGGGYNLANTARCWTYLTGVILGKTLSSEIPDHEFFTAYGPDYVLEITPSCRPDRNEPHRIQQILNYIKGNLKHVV", "test": "Selectivity panel (Table 3)", "assay_type": "biochemical"}, "[9]": {"test": "Mouse PK (oral)", "assay_type": "in vivo, C57/B16 mice", "settings": "for Cmax: plasma; for AUC(0-t) / half-life: C57/B16, plasma"}, "[10]": {"molecular_target": "hERG (Homo sapiens, UniProt Q12809)", "sequence (Q12809 whole entry)": "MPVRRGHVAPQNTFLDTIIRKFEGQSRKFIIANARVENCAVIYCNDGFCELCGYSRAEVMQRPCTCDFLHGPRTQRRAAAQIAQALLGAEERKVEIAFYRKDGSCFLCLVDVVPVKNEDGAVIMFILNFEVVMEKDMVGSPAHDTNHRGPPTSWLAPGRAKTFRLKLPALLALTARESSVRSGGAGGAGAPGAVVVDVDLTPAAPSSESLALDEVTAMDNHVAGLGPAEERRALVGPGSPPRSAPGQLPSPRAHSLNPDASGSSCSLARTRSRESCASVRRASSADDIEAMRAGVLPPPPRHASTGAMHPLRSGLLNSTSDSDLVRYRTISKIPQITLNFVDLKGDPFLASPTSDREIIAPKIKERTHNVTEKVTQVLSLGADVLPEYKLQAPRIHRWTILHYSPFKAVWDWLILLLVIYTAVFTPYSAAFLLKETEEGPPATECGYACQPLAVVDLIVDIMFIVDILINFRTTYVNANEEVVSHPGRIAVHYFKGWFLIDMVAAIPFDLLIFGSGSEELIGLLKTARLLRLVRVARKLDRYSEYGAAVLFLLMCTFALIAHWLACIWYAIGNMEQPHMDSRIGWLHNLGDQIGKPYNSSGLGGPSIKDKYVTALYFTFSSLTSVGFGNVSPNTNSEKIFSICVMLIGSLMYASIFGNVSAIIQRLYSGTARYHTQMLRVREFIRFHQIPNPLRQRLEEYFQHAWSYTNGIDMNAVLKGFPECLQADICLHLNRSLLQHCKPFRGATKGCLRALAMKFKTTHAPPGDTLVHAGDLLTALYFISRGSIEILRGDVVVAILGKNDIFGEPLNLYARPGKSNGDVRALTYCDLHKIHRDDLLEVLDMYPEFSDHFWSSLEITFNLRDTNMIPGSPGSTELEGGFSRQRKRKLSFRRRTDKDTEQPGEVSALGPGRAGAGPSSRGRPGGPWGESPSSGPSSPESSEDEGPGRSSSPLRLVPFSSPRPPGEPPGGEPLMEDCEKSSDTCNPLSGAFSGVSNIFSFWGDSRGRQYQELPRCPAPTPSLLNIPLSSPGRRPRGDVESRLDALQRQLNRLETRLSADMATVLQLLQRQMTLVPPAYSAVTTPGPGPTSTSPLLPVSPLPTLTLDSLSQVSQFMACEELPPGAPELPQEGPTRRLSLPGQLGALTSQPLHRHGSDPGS", "test": "hERG IC50", "assay_type": "cell-based"}, "[11]": {"molecular_target": "T2, BRD2-BD2 (Homo sapiens, UniProt P25440)", "T2 construct": "BRD2-BD2", "T2 sequence (P25440 344-453 limits assumed)": "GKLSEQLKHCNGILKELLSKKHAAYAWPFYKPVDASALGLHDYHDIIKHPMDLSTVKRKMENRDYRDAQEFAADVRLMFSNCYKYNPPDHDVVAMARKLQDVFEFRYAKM", "test": "Selectivity panel (Table 3)", "assay_type": "binding"}, "[12]": {"molecular_target": "TCPTP (Homo sapiens, UniProt P17706)", "sequence (P17706 whole entry, species assumed)": "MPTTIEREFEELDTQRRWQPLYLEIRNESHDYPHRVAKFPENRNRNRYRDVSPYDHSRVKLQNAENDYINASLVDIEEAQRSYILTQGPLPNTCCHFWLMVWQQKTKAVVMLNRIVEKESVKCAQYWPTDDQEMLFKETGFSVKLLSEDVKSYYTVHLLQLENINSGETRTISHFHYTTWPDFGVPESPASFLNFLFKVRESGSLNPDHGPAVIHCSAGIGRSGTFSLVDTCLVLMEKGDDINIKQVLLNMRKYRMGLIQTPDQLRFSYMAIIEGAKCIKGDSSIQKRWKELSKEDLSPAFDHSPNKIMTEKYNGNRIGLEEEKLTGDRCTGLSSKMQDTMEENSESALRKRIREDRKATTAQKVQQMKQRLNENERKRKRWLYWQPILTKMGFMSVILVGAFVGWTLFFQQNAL", "test": "Selectivity panel (Table 3)", "assay_type": "biochemical"}, "[13]": {"molecular_target": "LSD1 (Homo sapiens, UniProt O60341)", "test": "Selectivity panel (Table 3)", "assay_type": "biochemical"}, "[14]": {"test": "Dog PK (oral)", "assay_type": "in vivo, Beagle dogs", "settings": "for Cmax / AUC(0-t) / half-life: Beagle, plasma", "method": "Dog PK: Fasted or fed non-naïve Beagle dogs (Marshall Bioresources, Beijing, China) were administered a single intravenous bolus or oral gavage administration of test compounds at respective doses. Blood samples for plasma isolation were collected from a peripheral vessel, from restrained, non-sedated animals at the respective sampling time points. The quantification of compound concentrations in dog plasma was quantified using LC-MS/MS method. Plasma concentration versus time data was analyzed by non-compartmental mode approaches using the WinNonlin software program (version 6.3 or above, Pharsight). Pharmacokinetic parameters, including C0, CL, Vdss, Cmax, Tmax T1/2, AUC0-last, AUC0-inf, MRT0-last, MRT0-inf, bioavailability (%) for IV and PO groups were calculated. See FIGS. 9A, […], 9C and FIGS. 10A, 10B, 10C, and 10D."}, "[15]": {"molecular_target": "TEAD3 (Homo sapiens, UniProt Q99594)", "sequence (Q99594 whole entry, species assumed)": "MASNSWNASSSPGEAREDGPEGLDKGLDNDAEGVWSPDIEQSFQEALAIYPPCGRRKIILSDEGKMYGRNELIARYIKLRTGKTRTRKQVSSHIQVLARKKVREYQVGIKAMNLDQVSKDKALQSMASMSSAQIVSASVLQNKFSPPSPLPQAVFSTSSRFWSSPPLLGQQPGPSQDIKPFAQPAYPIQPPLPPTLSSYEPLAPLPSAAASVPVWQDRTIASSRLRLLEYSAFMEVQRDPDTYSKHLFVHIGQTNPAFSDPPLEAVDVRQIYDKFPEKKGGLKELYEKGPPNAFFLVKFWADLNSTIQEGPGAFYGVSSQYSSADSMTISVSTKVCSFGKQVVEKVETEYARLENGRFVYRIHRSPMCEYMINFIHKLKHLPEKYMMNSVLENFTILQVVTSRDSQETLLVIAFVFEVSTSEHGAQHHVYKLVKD", "test": "Selectivity panel (Table 3)", "assay_type": "binding"}, "[16]": {"molecular_target": "T3, BRD2-BD1 (Homo sapiens, UniProt P25440)", "T3 construct": "BRD2-BD1", "T3 sequence (P25440 74-180 limits assumed)": "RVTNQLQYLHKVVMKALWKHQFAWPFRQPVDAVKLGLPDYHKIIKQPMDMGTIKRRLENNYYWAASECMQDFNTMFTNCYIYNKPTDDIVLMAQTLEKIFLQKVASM", "test": "Selectivity panel (Table 3)", "assay_type": "binding"}, "[17]": {"molecular_target": "HDAC1 (Homo sapiens, UniProt Q13547)", "sequence (Q13547 whole entry, species assumed)": "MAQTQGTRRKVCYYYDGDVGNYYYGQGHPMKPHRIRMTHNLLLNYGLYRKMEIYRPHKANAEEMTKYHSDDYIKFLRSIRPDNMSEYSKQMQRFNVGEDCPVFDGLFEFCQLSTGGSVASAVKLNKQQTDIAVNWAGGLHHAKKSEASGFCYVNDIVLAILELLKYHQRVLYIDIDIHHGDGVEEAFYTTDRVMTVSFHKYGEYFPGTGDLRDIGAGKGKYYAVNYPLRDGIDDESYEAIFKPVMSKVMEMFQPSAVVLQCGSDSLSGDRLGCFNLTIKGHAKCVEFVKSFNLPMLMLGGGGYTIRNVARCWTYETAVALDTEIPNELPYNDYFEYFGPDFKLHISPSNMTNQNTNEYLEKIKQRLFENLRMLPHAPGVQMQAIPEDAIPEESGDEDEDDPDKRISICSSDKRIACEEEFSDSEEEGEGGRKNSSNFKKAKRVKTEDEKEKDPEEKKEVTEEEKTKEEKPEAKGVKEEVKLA", "test": "Selectivity panel (Table 3)", "assay_type": "biochemical"}}, "data": [{"smiles": "Cc1c(F)c(N)cc(C(=O)Nc2cc(-n3cc(C(=O)N4CCN(C)CC4)nn3)c(F)cc2N2C[C@@H](C)N(C)[C@@H](C)C2)c1Cl", "note": "[HYBI-084, 5-amino-2-chloro-4-fluoro-N-(4-fluoro-5-(4-(4-methylpiperazine-1-carbonyl)-1H-1,2,3-triazol-1-yl)-2-((3S,5R)-3,4,5-trimethylpiperazin-1-yl)phenyl)-3-methylbenzamide]", "values": [{"measurement": "Relative Abundance (UV Peak Area % Total)", "setting": "[1]", "value": 34.68, "unit": "%"}, {"measurement": "IC50", "setting": "[2]", "value": 4.48, "unit": "nM"}, {"measurement": "IC50", "setting": "[3]", "value": "> 1000", "unit": "nM"}, {"measurement": "half-life at 2 μM", "setting": "[4]; Dog whole blood", "value": "> 2.41", "unit": "h"}, {"measurement": "% Remaining after 60 min incubation", "setting": "[4]; Dog whole blood", "value": 94.6, "unit": "%"}, {"measurement": "half-life at 2 μM", "setting": "[4]; Human whole blood", "value": 10.3, "unit": "h"}, {"measurement": "% Remaining after 60 min incubation", "setting": "[4]; Human whole blood", "value": 110, "unit": "%"}, {"measurement": "half-life at 2 μM", "setting": "[4]; Mouse whole blood", "value": "> 2.41", "unit": "h"}, {"measurement": "% Remaining after 60 min incubation", "setting": "[4]; Mouse whole blood", "value": 108, "unit": "%"}, {"measurement": "half-life at 2 μM", "setting": "[4]; Rat whole blood", "value": "> 2.41", "unit": "h"}, {"measurement": "% Remaining after 60 min incubation", "setting": "[4]; Rat whole blood", "value": 109, "unit": "%"}, {"measurement": "IC50", "setting": "[5]", "value": "> 1000", "unit": "nM"}, {"measurement": "IC50", "setting": "[6]", "value": "> 1000", "unit": "nM"}, {"measurement": "Relative Abundance (UV Peak Area % Total)", "setting": "[7]", "value": 92.78, "unit": "%"}, {"measurement": "IC50", "setting": "[8]", "value": "> 1000", "unit": "nM"}, {"measurement": "F", "setting": "[9]; 10 mpk", "value": 26.3, "unit": "%"}, {"measurement": "F", "setting": "[9]; 30 mpk", "value": 37.7, "unit": "%"}, {"measurement": "Cmax", "setting": "[9]; C57/B16, 10 mg/kg, 10 mpk", "value": 359, "unit": "nM"}, {"measurement": "Cmax", "setting": "[9]; C57/B16, 30 mg/kg, 30 mpk", "value": 1280, "unit": "nM"}, {"measurement": "AUC(0-t)", "setting": "[9]; 10 mg/kg, 10 mpk", "value": 1.31, "unit": "µM·h"}, {"measurement": "half-life", "setting": "[9]; 10 mg/kg, 10 mpk", "value": 3.1, "unit": "h"}, {"measurement": "AUC(0-t)", "setting": "[9]; 30 mg/kg, 30 mpk", "value": 5.64, "unit": "µM·h"}, {"measurement": "half-life", "setting": "[9]; 30 mg/kg, 30 mpk", "value": 3.5, "unit": "h"}, {"measurement": "IC50", "setting": "[10]", "value": 22200, "unit": "nM"}, {"measurement": "IC50", "setting": "[11]", "value": "> 1000", "unit": "nM"}, {"measurement": "IC50", "setting": "[12]", "value": "> 1000", "unit": "nM"}, {"measurement": "IC50", "setting": "[13]", "value": "> 1000", "unit": "nM"}, {"measurement": "F", "setting": "[14]; 1.5 mpk", "value": 11.4, "unit": "%"}, {"measurement": "F", "setting": "[14]; 4.5 mpk", "value": 37.7, "unit": "%"}, {"measurement": "Cmax", "setting": "[14]; 1.5 mg/kg, 1.5 mpk", "value": 8.4, "unit": "nM"}, {"measurement": "Cmax", "setting": "[14]; 4.5 mg/kg, 4.5 mpk", "value": 47.6, "unit": "nM"}, {"measurement": "AUC(0-t)", "setting": "[14]; 1.5 mg/kg, 1.5 mpk", "value": 0.0466, "unit": "µM·h"}, {"measurement": "half-life", "setting": "[14]; 1.5 mg/kg, 1.5 mpk", "value": 7.5, "unit": "h"}, {"measurement": "AUC(0-t)", "setting": "[14]; 4.5 mg/kg, 4.5 mpk", "value": 0.459, "unit": "µM·h"}, {"measurement": "half-life", "setting": "[14]; 4.5 mg/kg, 4.5 mpk", "value": 6.3, "unit": "h"}, {"measurement": "IC50", "setting": "[15]", "value": "> 1000", "unit": "nM"}, {"measurement": "IC50", "setting": "[16]", "value": "> 1000", "unit": "nM"}, {"measurement": "IC50", "setting": "[17]", "value": "> 1000", "unit": "nM"}]}]}
